{"source": "paper doi:10.1101/2025.01.28.635346v1", "about": "(bioRxiv, 2025)", "conditions_in_all_cases": "for Emax: read-out: Max Response", "key": {"[1]": {"molecular_target": "nAChR(a4/b2) (Homo sapiens, UniProt P17787+P43681)", "sequence (P43681 29-627 limits assumed)": "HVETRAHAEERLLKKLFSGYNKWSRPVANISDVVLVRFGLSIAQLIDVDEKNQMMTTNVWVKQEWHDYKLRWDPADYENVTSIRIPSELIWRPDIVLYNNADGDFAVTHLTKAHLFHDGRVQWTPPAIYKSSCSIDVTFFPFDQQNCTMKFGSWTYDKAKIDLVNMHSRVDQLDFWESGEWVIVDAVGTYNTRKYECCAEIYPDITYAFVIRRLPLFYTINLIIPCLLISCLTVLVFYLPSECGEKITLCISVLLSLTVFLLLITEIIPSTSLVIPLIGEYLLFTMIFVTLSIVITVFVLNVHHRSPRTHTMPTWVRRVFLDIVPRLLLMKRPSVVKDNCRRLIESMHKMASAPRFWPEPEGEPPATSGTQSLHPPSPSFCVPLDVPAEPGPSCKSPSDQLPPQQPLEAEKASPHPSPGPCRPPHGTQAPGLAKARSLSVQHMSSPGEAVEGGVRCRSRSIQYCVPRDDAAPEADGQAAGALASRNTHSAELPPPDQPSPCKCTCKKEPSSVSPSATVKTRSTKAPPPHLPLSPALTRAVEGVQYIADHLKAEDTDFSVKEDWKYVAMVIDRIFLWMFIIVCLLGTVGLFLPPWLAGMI", "sequence (P17787 26-502)": "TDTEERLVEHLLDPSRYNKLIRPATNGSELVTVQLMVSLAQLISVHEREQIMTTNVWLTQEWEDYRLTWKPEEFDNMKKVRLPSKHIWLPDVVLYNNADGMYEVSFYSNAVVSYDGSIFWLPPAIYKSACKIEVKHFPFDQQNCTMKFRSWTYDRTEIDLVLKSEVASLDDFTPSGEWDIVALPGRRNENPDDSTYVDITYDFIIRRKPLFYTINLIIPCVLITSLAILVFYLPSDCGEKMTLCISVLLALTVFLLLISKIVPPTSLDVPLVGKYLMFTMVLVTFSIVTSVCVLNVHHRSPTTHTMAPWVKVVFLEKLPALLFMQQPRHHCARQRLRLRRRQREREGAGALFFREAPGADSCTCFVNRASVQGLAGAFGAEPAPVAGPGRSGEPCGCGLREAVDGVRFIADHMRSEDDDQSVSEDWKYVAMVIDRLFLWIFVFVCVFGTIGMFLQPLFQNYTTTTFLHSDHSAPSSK", "experiment": "Safetyscan47 Ion Channel, Blocker", "type": "cell-based"}, "[2]": {"molecular_target": "HTR2A (Homo sapiens, UniProt P28223)", "sequence (P28223 whole entry)": "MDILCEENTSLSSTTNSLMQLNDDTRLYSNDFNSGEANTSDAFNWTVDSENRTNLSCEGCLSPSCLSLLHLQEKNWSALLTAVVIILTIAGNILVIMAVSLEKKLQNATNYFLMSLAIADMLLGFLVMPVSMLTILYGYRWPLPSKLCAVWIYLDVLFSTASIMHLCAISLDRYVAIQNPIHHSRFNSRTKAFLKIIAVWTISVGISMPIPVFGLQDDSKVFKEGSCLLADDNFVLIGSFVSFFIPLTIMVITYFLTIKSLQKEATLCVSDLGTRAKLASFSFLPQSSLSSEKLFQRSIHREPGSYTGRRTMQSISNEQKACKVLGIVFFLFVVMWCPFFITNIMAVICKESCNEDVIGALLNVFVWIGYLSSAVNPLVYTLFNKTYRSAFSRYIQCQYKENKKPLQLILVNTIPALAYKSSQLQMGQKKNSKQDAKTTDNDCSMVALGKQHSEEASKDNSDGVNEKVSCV", "experiment": "Safetyscan47 GPCR Calcium Flux, Agonist", "type": "cell-based"}, "[3]": {"molecular_target": "SERT (Homo sapiens, UniProt P31645)", "sequence (P31645 whole entry)": "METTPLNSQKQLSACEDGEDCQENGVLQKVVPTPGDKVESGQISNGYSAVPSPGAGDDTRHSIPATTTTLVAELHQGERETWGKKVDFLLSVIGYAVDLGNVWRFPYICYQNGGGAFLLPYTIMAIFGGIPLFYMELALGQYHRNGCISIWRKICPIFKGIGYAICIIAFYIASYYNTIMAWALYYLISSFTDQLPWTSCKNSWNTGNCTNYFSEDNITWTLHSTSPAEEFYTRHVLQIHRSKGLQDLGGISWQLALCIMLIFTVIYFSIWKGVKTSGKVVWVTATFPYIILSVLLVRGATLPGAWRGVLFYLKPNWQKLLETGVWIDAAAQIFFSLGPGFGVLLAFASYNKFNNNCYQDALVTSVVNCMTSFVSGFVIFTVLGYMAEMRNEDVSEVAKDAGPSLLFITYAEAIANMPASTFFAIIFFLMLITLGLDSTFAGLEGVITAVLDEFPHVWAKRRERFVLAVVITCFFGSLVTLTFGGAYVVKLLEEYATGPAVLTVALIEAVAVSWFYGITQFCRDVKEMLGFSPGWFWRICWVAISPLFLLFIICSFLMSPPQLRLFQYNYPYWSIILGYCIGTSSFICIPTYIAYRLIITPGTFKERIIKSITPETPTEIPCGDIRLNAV", "experiment": "Safetyscan47 Transporter, Blocker", "type": "cell-based"}, "[4]": {"molecular_target": "T1, AR (Homo sapiens, UniProt P10275)", "T1 sequence (P10275 1-920)": "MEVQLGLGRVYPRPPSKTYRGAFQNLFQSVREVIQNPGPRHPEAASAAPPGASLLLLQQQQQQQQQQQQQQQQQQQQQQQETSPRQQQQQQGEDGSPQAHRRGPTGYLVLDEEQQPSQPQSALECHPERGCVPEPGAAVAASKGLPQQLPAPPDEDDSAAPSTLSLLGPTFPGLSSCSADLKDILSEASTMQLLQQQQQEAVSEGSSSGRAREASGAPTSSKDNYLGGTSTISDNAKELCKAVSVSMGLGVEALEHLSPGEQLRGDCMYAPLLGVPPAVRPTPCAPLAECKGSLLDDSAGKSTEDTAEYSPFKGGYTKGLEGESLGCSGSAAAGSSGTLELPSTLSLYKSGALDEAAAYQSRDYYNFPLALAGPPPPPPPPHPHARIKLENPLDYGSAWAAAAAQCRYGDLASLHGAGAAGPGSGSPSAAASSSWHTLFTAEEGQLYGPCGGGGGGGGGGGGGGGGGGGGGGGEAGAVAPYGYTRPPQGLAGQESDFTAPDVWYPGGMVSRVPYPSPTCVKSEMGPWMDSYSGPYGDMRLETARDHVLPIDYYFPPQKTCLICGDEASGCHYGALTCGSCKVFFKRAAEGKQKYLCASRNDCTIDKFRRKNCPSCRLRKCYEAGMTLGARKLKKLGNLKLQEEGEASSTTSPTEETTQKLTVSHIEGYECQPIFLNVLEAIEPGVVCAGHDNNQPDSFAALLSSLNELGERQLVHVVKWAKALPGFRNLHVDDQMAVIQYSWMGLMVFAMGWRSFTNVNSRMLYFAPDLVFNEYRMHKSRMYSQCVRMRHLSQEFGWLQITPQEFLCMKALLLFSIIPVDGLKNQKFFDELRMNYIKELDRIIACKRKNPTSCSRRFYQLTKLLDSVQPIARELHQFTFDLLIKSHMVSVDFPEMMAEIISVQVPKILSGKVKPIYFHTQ", "experiment": "Safetyscan47 NHR Nuclear Translocation, Antagonist", "type": "cell-based"}, "[5]": {"molecular_target": "ADRB2 (Homo sapiens, UniProt P07550)", "sequence (P07550 whole entry)": "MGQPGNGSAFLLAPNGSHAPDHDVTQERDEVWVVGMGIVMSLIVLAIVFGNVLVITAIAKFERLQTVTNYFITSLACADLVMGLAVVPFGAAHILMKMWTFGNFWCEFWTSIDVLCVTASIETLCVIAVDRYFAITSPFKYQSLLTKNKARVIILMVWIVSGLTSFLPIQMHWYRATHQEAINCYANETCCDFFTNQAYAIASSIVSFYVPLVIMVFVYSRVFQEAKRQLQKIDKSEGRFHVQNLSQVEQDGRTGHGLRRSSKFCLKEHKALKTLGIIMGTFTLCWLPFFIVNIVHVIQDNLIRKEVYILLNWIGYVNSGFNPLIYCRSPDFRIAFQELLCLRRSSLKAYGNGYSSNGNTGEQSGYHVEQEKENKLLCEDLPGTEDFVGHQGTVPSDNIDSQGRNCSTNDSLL", "experiment": "Safetyscan47 GPCR cAMP, Agonist", "type": "cell-based"}, "[6]": {"molecular_target": "T1, AR", "experiment": "Safetyscan47 NHR Nuclear Translocation, Agonist", "type": "cell-based"}, "[7]": {"molecular_target": "OPRK1 (Homo sapiens, UniProt P41145)", "sequence (P41145 whole entry)": "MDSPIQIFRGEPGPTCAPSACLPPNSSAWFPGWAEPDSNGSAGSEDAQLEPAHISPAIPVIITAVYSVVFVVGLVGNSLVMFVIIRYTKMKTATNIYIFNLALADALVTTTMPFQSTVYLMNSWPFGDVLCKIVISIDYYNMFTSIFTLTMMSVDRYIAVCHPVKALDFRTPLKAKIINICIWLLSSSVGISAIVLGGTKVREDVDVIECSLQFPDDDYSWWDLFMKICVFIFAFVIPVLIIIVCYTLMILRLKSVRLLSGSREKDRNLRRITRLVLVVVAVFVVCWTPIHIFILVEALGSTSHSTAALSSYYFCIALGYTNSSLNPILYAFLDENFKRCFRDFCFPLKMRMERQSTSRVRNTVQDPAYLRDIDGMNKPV", "experiment": "Safetyscan47 GPCR cAMP, Antagonist", "type": "cell-based"}, "[8]": {"molecular_target": "AChE (Homo sapiens, UniProt P22303)", "sequence (P22303 32-614)": "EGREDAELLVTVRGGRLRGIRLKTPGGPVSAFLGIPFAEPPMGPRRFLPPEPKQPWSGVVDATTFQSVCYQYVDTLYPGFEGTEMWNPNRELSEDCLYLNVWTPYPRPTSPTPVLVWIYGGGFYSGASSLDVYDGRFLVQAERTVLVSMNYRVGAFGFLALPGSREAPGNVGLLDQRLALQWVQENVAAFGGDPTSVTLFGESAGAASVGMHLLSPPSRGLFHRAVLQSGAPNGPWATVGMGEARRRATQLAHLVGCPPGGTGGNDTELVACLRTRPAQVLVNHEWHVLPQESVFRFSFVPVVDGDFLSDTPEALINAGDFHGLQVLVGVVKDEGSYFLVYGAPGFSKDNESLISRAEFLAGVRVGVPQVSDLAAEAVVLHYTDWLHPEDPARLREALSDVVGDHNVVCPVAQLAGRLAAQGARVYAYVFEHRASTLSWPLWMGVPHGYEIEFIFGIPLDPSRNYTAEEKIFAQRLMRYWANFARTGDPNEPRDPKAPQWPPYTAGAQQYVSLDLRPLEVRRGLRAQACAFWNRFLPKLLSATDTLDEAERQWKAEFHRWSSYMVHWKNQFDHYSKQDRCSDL", "experiment": "Safetyscan47 Non-Kinase Enzymes Enzymatic, Inhibitor", "type": "biochemical"}, "[9]": {"molecular_target": "T2, ADRA2A (Homo sapiens, UniProt P08913)", "T2 sequence (P08913 1-465)": "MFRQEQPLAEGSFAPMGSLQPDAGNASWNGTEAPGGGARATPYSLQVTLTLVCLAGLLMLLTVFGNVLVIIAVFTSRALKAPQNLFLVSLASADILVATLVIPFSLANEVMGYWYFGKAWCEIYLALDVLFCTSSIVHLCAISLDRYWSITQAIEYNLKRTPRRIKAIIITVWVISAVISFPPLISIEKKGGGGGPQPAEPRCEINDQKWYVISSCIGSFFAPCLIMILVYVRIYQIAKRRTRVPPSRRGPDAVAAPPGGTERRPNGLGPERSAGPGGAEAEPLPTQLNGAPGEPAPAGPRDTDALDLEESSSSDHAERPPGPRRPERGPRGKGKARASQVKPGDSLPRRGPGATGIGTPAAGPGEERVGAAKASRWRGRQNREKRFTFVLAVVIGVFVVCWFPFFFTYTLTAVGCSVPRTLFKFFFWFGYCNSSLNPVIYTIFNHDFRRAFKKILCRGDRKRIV", "experiment": "Safetyscan47 GPCR cAMP, Agonist", "type": "cell-based"}, "[10]": {"molecular_target": "T3, GR (Homo sapiens, UniProt P04150)", "T3 sequence (P04150 1-777)": "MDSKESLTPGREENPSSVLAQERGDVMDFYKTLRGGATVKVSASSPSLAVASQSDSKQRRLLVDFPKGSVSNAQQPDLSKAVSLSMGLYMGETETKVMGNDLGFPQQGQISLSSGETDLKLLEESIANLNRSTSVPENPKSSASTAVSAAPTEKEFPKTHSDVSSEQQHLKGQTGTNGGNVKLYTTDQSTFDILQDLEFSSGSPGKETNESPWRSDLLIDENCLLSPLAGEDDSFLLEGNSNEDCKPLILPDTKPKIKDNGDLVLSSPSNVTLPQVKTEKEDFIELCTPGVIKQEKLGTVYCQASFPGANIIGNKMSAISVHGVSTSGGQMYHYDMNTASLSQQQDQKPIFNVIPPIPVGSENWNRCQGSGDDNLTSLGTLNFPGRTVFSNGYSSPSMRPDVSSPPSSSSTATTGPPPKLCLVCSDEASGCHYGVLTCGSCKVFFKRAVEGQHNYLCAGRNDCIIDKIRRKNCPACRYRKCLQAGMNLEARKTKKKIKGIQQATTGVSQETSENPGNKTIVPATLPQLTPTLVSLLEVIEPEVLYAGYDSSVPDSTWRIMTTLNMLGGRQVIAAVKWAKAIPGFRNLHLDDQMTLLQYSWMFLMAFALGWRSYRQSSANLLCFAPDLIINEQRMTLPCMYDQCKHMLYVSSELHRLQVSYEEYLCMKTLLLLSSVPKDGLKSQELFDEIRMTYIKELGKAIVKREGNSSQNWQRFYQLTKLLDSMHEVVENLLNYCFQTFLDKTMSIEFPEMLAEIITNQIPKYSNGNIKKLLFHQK", "experiment": "Safetyscan47 NHR Protein Interaction, Antagonist", "type": "cell-based"}}, "note": "Bridge positions count the residues as written; N and C are the ends. Side chains are listed from the residue outwards. Peptide text beside a SMILES is read from it. * marks the point of attachment. Butanoyl(4-(4-I-phenyl)) = O=C(CCCc1ccc(I)cc1)*; PEG2 = NCCOCCOCCC(=O)O", "data": [{"compound": "CC[C@H](C)[C@H](NC(=O)[C@H](CC(C)C)NC(=O)[C@H](CC(=O)O)NC(=O)CNC(=O)[C@H](CCCNC(=N)N)NC(=O)[C@@H](NC(=O)[C@H](Cc1ccccc1)NC(=O)[C@H](Cc1ccc(O)cc1)NC(=O)[C@@H]1CCC(=O)NCC(=O)NCC(=O)N[C@@H](CCCNC(=N)N)C(=O)NCC(=O)N[C@@H](Cc2c[nH]cn2)C(=O)N[C@@H](C(C)C)C(=O)N2CCC[C@H]2C(=O)N1)C(C)C)C(=O)N[C@@H](CO)C(=O)N[C@@H](Cc1ccccc1)C(=O)N[C@@H](Cc1ccc(O)cc1)C(=O)N[C@@H](CCCCN)C(=O)O", "note": "[lassotide 36] (GGRGHVPEYFVRGDLISFYK-OH; lactam N-8)", "values": [{"measurement": "IC50", "setting": "[1]", "result": "> 45", "unit": "µM"}, {"measurement": "Emax", "setting": "[1]", "result": 2.98, "unit": "%"}, {"measurement": "EC50", "setting": "[2]", "result": "> 45", "unit": "µM"}, {"measurement": "Emax", "setting": "[2]", "result": 1.7, "unit": "%"}, {"measurement": "IC50", "setting": "[3]", "result": "> 45", "unit": "µM"}, {"measurement": "Emax", "setting": "[3]", "result": 17.5, "unit": "%"}, {"measurement": "IC50", "setting": "[4]", "result": "> 45", "unit": "µM"}, {"measurement": "Emax", "setting": "[4]", "result": 0, "unit": "%"}, {"measurement": "EC50", "setting": "[5]", "result": "> 45", "unit": "µM"}, {"measurement": "Emax", "setting": "[5]", "result": 0, "unit": "%"}, {"measurement": "EC50", "setting": "[6]", "result": "> 45", "unit": "µM"}, {"measurement": "Emax", "setting": "[6]", "result": 0, "unit": "%"}, {"measurement": "IC50", "setting": "[7]", "result": "> 45", "unit": "µM"}, {"measurement": "Emax", "setting": "[7]", "result": 0, "unit": "%"}, {"measurement": "IC50", "setting": "[8]", "result": "> 45", "unit": "µM"}, {"measurement": "Emax", "setting": "[8]", "result": 0, "unit": "%"}, {"measurement": "EC50", "setting": "[9]", "result": "> 45", "unit": "µM"}, {"measurement": "Emax", "setting": "[9]", "result": 0.3, "unit": "%"}, {"measurement": "IC50", "setting": "[10]", "result": "> 45", "unit": "µM"}, {"measurement": "Emax", "setting": "[10]", "result": 0, "unit": "%"}]}, {"compound": "CC[C@H](C)[C@H](NC(=O)[C@H](CC(C)C)NC(=O)[C@H](CC(=O)O)NC(=O)CNC(=O)[C@H](CCCNC(=N)N)NC(=O)[C@@H](NC(=O)[C@H](Cc1ccccc1)NC(=O)[C@H](Cc1ccc(O)cc1)NC(=O)[C@@H]1CCC(=O)NCC(=O)NCC(=O)N[C@@H](CCCNC(=N)N)C(=O)NCC(=O)N[C@@H](Cc2c[nH]cn2)C(=O)N[C@@H](C(C)C)C(=O)N2CCC[C@H]2C(=O)N1)C(C)C)C(=O)N[C@@H](CO)C(=O)N[C@@H](Cc1ccccc1)C(=O)N[C@@H](Cc1ccc(O)cc1)C(=O)N[C@@H](CCCCNC(=O)CCOCCOCCNC(=O)CCCc1ccc(I)cc1)C(=O)O", "note": "[lassotide 47] (GGRGHVPEYFVRGDLISFYK([PEG2-Butanoyl(4-(4-I-phenyl))])-OH; lactam N-8)", "values": [{"measurement": "IC50", "setting": "[1]", "result": "> 45", "unit": "µM"}, {"measurement": "Emax", "setting": "[1]", "result": 4.35, "unit": "%"}, {"measurement": "EC50", "setting": "[2]", "result": "> 45", "unit": "µM"}, {"measurement": "Emax", "setting": "[2]", "result": 3.54, "unit": "%"}, {"measurement": "IC50", "setting": "[3]", "result": "> 45", "unit": "µM"}, {"measurement": "Emax", "setting": "[3]", "result": 22.5, "unit": "%"}, {"measurement": "IC50", "setting": "[4]", "result": "> 45", "unit": "µM"}, {"measurement": "Emax", "setting": "[4]", "result": 0, "unit": "%"}, {"measurement": "EC50", "setting": "[5]", "result": "> 45", "unit": "µM"}, {"measurement": "Emax", "setting": "[5]", "result": 0, "unit": "%"}, {"measurement": "EC50", "setting": "[6]", "result": "> 45", "unit": "µM"}, {"measurement": "Emax", "setting": "[6]", "result": 0, "unit": "%"}, {"measurement": "IC50", "setting": "[7]", "result": "> 45", "unit": "µM"}, {"measurement": "Emax", "setting": "[7]", "result": 0, "unit": "%"}, {"measurement": "IC50", "setting": "[8]", "result": "> 45", "unit": "µM"}, {"measurement": "Emax", "setting": "[8]", "result": 7.88, "unit": "%"}, {"measurement": "EC50", "setting": "[9]", "result": "> 45", "unit": "µM"}, {"measurement": "Emax", "setting": "[9]", "result": 30.2, "unit": "%"}, {"measurement": "IC50", "setting": "[10]", "result": "> 45", "unit": "µM"}, {"measurement": "Emax", "setting": "[10]", "result": 0, "unit": "%"}]}]}
